The nature of data set [1]: physchem. The note with it: octanol/water.
Description: Partition coefficient, log P of the compound by HPLC analysis
A short description of data set [2]: physchem. The note with it: octanol/water. This is another data set of the same source.
Description: Partition coefficient, log P of the compound by shake-flask technique

In the case of `Brc1cnc2ccccc2c1`, the logP in “physchem [1]” turned out to be 3.03. As for `Cc1ccnc2ccccc12`, in “physchem [1]”, the logP is 2.52.

The compound `Cc1cccnc1` [3-METHYLPYRIDINE] showed a logP in “physchem [1]” of 1.2.

On to `CC(=O)Nc1ccccc1` [ACETANILIDE], for which the figures for the logP in the data set “physchem [2]” and in the data set “physchem [1]” were 1.16 and 1.14, respectively.

For `c1ccc2nc3ccccc3cc2c1` [ACRIDINE], the logP in the data set “physchem [2]” was 3.4; in “physchem [1]”, 3.39. Compound `COc1ccccc1` [ANISOLE] yielded a logP in the data set “physchem [1]” of 2.1.

In the case of `Nc1ccncc1` [DALFAMPRIDINE], the logP in the data set “physchem [2]” stood at 0.28; in “physchem [1]”, 0.26. On the same counts, the results for `c1ccc2cnccc2c1` [ISOQUINOLINE] are 2.08 and 2.09.

As for `c1ccc2nc3ccccc3nc2c1` [PHENAZINE], the lipophilicity (logP) in the data set “physchem [2]” stood at 2.85; in “physchem [1]”, 2.81. The corresponding values for `CC(=O)Nc1ccc(OCC(O)CNC(C)C)cc1` (stereo not drawn) [PRACTOLOL] are 0.79 and 0.78.

Regarding `c1ccc2ncccc2c1` [QUINOLINE], the logP came out at 2.03 in the data set “physchem [2]” and 2.04 in “physchem [1]”.

These data come from ChEMBL document CHEMBL3272075, “Direct measurement of octanol-water partition coefficients by high-pressure liquid chromatography” (J Med Chem, 1976).
